This passage reports IC50 and minimal effective concentration results from patent publication US6300501A, “Histidine-(N-benzyl glycinamide) inhibitors of protein farnesyl transferase” (Warner-Lambert Company, priority 1998, dated 2001).

For assay [1], the target named is T1, SF9 affinity purified rat farnesyl protein transferase (Rattus norvegicus, UniProt Q02293+Q04631).
T1 construct: made in house; host or cells: Sf9 insect cells (baculovirus system inferred from b7)
Description: PFT inhibitory activity (radiolabeled farnesyl pyrophosphate, streptavidin bead assay). It is filed as biochemical. Here is the method:
The protein:farnesyl transferase (PFT) or farnesyl protein transferase (FPT) inhibitory activity of compounds of the present invention were assayed in HEPES buffer (pH 7.4) containing 5 mM potassium phosphate and 20 μM ZnCl2. The solution also contained 5 mM DTT (dithiothreitol), 5 mM MgCl2, and 0.1% PEG 8000. Assays were performed in 96 well plates (Wallec) and employed solutions composed of varying concentrations of a compound of the present invention in 100% DMSO (dimethylsulfoxide). Upon addition of both substrates, radiolabeled farnesyl pyrophosphate ([1^3 H], specific activity 15-30 Ci/mmol, final concentration 134 nM) and (biotinyl)-Ahe-Thr-Lys-Cys-Val-Ile-Met ([3aS[3a alpha, 4 beta, 6a alpha]-hexahydro-2-oxo-1H-thieno[3,4-d]imidazole-5-pentanoic acid]-[7-aminoheptanoic acid]-Thr-Lys-Cys-Val-Ile-Met) (Ahe is 7-aminoheptanoic acid, Thr is threonine, Lys is lysine, Cys is cysteine, Val is valine, Ile is isoleucine and Met is methionine) (final concentration 0.2 μM), the enzyme reaction was started by addition of SF9 affinity purified rat farnesyl protein transferase. After incubation at 30° C. for 30 minutes, the reaction was terminated by diluting the reaction 2.5-fold with a stop buffer containing 1.5 M magnesium acetate, 0.2 M H3 PO4, 0.5% BSA (bovine serum albumin), and strepavidin beads (Amersham) at a concentration of 1.3 mg/mL. After allowing the plate to settle for 30 minutes at room temperature, radioactivity was quantitated on a microBeta counter (Model 1450, Wallec). The assay was also carried out without 5 mM potassium phosphate.

Assay [2] deals with ras farnesylation in ras-transformed cells. Description: Gel shift assay. The note with it: ras-transformed cells, 18-hour incubation; read-out: Gel Shift (μM) MED (minimal effective dose to observe inhibition of ras farnesylation). The class given is cell-based. Here is the method:
Twenty-four hours after planting 2×10^6 ras-transformed cells per treatment condition, the farnesylation inhibitor is added at varying concentrations. Following an 18-hour incubation period, cells are lysed in phosphate-buffered saline containing 1% Triton X-100, 0.5% sodium deoxycholate, and 0.1% SDS (sodium dodecyl sulfate), pH 7.4 in the presence of several protease inhibitors (PMSF (phenylmethylsulfonylfluoride), antipain, leupeptin, pepstatin A, and aprotinin all at 1 μg/mL). Ras protein is immunoprecipitated from the supernatants by the addition of 3 μg v-H-ras Ab-2 (Y13-259 antibody from Oncogene Science). After overnight immunoprecipitation, 30 μL of a 50% protein G-Sepharose slurry (Pharmacia) is added followed by 45-minute incubation. Pellets are resuspended in 2× tris-glycine loading buffer (Novex) containing 5% β-mercaptoethanol and then denatured by 5 minutes boiling prior to electrophoresis on 14% Tris-glycine SDS gels. Using Western transfer techniques, proteins are transferred to nitrocellulose membranes followed by blocking in blocking buffer. Upon overnight incubation with primary antibody (pan-ras Ab-2 from Oncogene Science), an antimouse HRP (horse radish peroxidase) conjugate secondary antibody (Amersham) is employed for detection of the ras protein. Blots are developed using ECL(enhanced chemiluminescence) techniques (Amersham).

Where [3] appears, read: HEPES buffer pH 7.4, without 5 mM potassium phosphate, read-out: IC50 (μM) Hepes.
Setting [4] is: HEPES buffer pH 7.4 containing 5 mM potassium phosphate, read-out: IC50 (μM) 5 mM K3 PO4 -2.

Where two headings read alike, the source gives them in different places. Where only a bound is given, the exact number is not on record here.

The term IC50 denotes the concentration that inhibits the measured activity by half.

T1 sequence (Q02293 whole entry, one chain of several): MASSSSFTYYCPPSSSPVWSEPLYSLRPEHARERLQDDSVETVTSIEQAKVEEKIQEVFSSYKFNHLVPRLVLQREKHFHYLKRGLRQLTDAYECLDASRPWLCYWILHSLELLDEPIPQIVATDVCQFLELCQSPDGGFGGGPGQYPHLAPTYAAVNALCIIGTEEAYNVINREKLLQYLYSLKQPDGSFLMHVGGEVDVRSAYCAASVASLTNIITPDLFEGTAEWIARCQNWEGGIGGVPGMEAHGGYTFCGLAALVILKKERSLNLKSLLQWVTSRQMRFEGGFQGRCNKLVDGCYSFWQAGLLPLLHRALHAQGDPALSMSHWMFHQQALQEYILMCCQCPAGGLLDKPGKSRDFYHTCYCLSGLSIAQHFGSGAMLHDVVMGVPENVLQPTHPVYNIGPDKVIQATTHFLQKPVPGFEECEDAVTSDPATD

On to `COc1cccc(CN(CC(=O)NCC(C)(C)c2ccccc2)C(=O)[C@H](Cc2c[nH]cn2)NC(=O)OCc2ccccc2)c1` [Example 59, (S)-(2-(1H-Imidazole-4-yl)-1-{(3-methoxy-benzyl)-[(2-methyl-2-phenyl-propylcarbamoyl)-methyl]-carbamoyl}-ethyl)-carbamic Acid Benzyl Ester], for which the IC50 stood at 0.52 µM in assay [1] (setting [3]) and 0.004 µM in assay [1] (setting [4]). The minimal effective concentration in assay [2] stood at 0.05 µM.

On to `CN(Cc1ccccc1)C(=O)N[C@@H](Cc1c[nH]cn1)C(=O)N(CC(=O)NCC(C)(C)c1ccccc1)Cc1ccc(Cl)cc1` [Example 58, (S)-2-(3-Benzyl-3-methyl-ureido)-N-(4-chloro-benzyl)-3-(1H-imidazole-4-yl)-N-[(2-methyl-2-phenyl-propylcarbamoyl)-methyl]-propionamide], for which the IC50 in assay [1] (setting [3]) turned out to be 0.029 µM; in assay [1] (setting [4]), 0.005 µM. Further, in assay [2], the minimal effective concentration worked out at 0.05 µM.

For `CC(CNC(=O)CN(Cc1ccc(N(C)C)cc1)C(=O)[C@H](Cc1c[nH]cn1)NC(=O)OCc1ccccc1)c1ccccc1` (stereo partly drawn) [Example 48, (S)-[1-{(4-Dimethylamino-benzyl)-[(2-phenyl-propylcarbamoyl)-methyl]-carbamoyl}-2-(1H-imidazole-4-yl)-ethyl]-carbamic Acid Benzyl Ester], the results for the IC50 in assay [1] (setting [3]) and in assay [1] (setting [4]) were 0.5 µM and 0.0029 µM, respectively. In assay [2], the minimal effective concentration was determined as 0.05 µM.

Take `CC(CNC(=O)CN(Cc1cccc2ccccc12)C(=O)[C@H](Cc1c[nH]cn1)NC(=O)OCc1ccccc1)c1ccccc1` (stereo partly drawn) [Example 37, (S)-(2-(1H-Imidazole-4-yl)-1-{naththalen-1-ylmethyl-[(2-phenyl-propylcarbamoyl)-methyl]-carbamoyl}-ethyl)-carbamic Acid Benzyl Ester]: the values for the half-maximal inhibitory concentration (IC50) in assay [1] (setting [3]) and in assay [1] (setting [4]) were 0.92 µM and 0.026 µM, respectively. For the same molecule, the minimal effective concentration in assay [2] is on record as at least 0.2 µM.

Consider `Cc1ccc(CN(CC(=O)NCC(C)(C)c2ccccc2)C(=O)[C@H](Cc2c[nH]cn2)NC(=O)OCc2ccccc2)cc1` [Example 56, (S)-(2-(1H-Imidazole-4-yl)-1-{(4-methyl-benzyl)-[(2-methyl-2-phenyl-propylcarbamoyl)-methyl]-carbamoyl}-ethyl)-carbamic Acid Benzyl Ester], for which the IC50 in assay [1] (setting [3]) came to 0.32 µM; in assay [1] (setting [4]), 0.012 µM. For the same molecule, the minimal effective concentration in assay [2] was found to be 0.05 µM.

With `CC(C)CN(CC(=O)NCC(C)c1ccccc1)C(=O)[C@H](Cc1c[nH]cn1)NC(=O)OCc1ccccc1` (stereo partly drawn) [Example 62, (S)-(2-(1H-Imidazol-4-yl)-1-{isobutyl-[(2-phenyl-propylcarbamoyl)-methyl]-carbamoyl}-ethyl)-carbamic Acid Benzyl Ester], the IC50 in assay [1] (setting [3]) was found to be 2.6 µM; in assay [1] (setting [4]), 0.029 µM.

Turning to `CC(C(=O)NCC(C)(C)c1ccccc1)N(Cc1ccc(Cl)cc1)C(=O)[C@H](Cc1cnc[nH]1)NC(=O)OCc1ccccc1` (stereo partly drawn) [Example 55, (S)-[1-{(4-Chloro-benzyl)-[1-(2-methyl-2-phenyl-propylcarbamoyl)-ethyl]-carbamoyl}-2-(3H-imidazole-4-yl)-ethyl]-carbamic Acid Benzyl Ester], the IC50 is 0.86 µM in assay [1] (setting [3]) and 0.014 µM in assay [1] (setting [4]). Further, in assay [2], the minimal effective concentration came to 0.05 µM.

In the case of `COc1ccccc1CN(CC(=O)NCC(C)(C)c1ccccc1)C(=O)[C@H](Cc1c[nH]cn1)NC(=O)OCc1ccccc1` [Example 57, (S)-(2-(1H-Imidazole-4-yl)-1-{(2-methoxy-benzyl)-[(2-methyl-2-phenyl-propylcarbamoyl)-methyl]-carbamoyl}-ethyl)-carbamic Acid Benzyl Ester], the IC50 in assay [1] (setting [3]) is 0.38 µM; in assay [1] (setting [4]), 0.0052 µM.

Consider `CC(CNC(=O)CN(Cc1ccc(OCc2ccccc2)cc1)C(=O)[C@H](Cc1c[nH]cn1)NC(=O)NCc1ccccc1)c1ccccc1` (stereo partly drawn) [Example 26, (S)-N-(4-Benzyloxy-benzyl)-2-(3-benzyl-ureido)-3-(1H-imidazole-4-yl)-N-[(2-phenyl-propylcarbamoyl)-methyl]-propionamide], for which the IC50 was 0.15 µM in assay [1] (setting [3]) and 0.009 µM in assay [1] (setting [4]).
